Test results as given in patent US20220151935A1, “USE OF AMINO ACID BASED NUTRIENTS AND PHARMACEUTICAL COMPOSITION CONTAINING THE SAME” (priority 2018, published 2022).
Marks after values point to notes of the source that are not given here.

Assays:
[1] = test system: human liver cancer cells (HepG2); experiment: Tumor weight and tumor inhibition in nude mice bearing HepG2; format: in vivo; conditions: for Intratumoral injection Tumor inhibition rate / Intratumoral injection Tumor weight / Tumor inhibition rate of intraperitoneal injection: 5th day after last dose; for Y(%) tumor inhibition rate: intratumoral every 3 days x3, <150 μl, fifth day
Protocol: One of the core characteristics of tumors is heterogeneity. […] The corresponding negative control was normal saline.
(§1) They were injected intraperitoneally and intratumorally.
The negative control group was given normal saline. The compositions of the study drug are as shown in the table below: 4 types and concentrations of amino acid based nutrient single drugs (X % amino acid based nutrients), 18 types and concentrations of ineffective absorption drugs (Y % ineffective absorption drugs), 24 compositions comprising various types and concentrations of amino acid based nutrients and ineffectively absorption drugs (X % amino acid based nutrients/Y % ineffectively absorption drugs).
The negative control was normal saline. The compositions of 16 study drugs, as shown in the table below, comprise: a 5-fluorouracil single drug of 4 varying concentrations (X % 5-fluorouracil), and an amino acid based nutrient with 5 varying concentrations (Y % amino acid based nutrient), 7 compositions consisting of 5-fluorouracil of varying concentrations and an amino acid based nutrient of varying concentrations (X % 5-fluorouracil/Y % amino acid based nutrient). […] The dose at each time was: 5-fluorouracil 50 mg/kg, glutathione ≤1 g/kg, and an injection volume was ≤150 μl/mouse.
The negative control was normal saline, the positive control was 1% 5-fluorouracil, and the study drug was 1% methylene blue/10% amino acid based nutrient composition (the type of the amino acid based nutrient is variable). The amino acid based nutrients in the compositions used in study groups 1-13 were: arginine, glycine, cysteine hydrochloride, valine, threonine, proline, histidine hydrochloride, phenylalanine, lysine, leucine, alanine, glutathione, serine, and the study drug used in the study group 14 was 1% methylene blue/5% arginine/5% glycine.

[2] = test system: breast cancer 4T1 cells; experiment: Tumor weight and tumor inhibition in BALB/c mice bearing breast cancer 4T1 cells; conditions: for Tumor inhibition rate / Tumor weight (x ± s) / Tumor weight: intratumoral 150 μl/mouse every 3 days x3; for Intratumoral injection Tumor inhibition rate / Intratumoral injection Tumor weight: Table 10, avg tumor volume 336 mm^3, 150 μl/mouse every 3 days x3, 5th day after last dose;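 for all read-outs here: subcutaneous grafts in the right axilla, tumors excised and weighed after euthanasia, inhibition rate derived from group mean tumor weight versus the negative control group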
Protocol: In the following examples, unless otherwise specified, animal tests of subcutaneous transplantation tumors were performed in accordance with test guidelines issued by a drug administration authority. […] The subcutaneous transplantation was carried out according to a conventional method for subcutaneous inoculation of tumor cells. […] Items to be observed, measured and analyzed in the experiments included general status, body weight, food intake, tumor volume, tumor weight, thymus weight, spleen weight, and the like.
The tumor growth inhibition rate (abbreviated as tumor inhibition rate in the present invention) is calculated through the following equation:
wherein TW is an average tumor weight of a study group; CW is an average tumor weight of a negative control group.
The effects of the co-use of drugs (including efficacy and safety) can theoretically be based on the judgment of q:
q=actual combined effect/theoretical expected effect of simple addition.
When q=1, the actual combined effect meets the theoretical expectation, showing an additive effect; when q<1, the actual combined effect is weaker than the theoretical expectation, showing an antagonistic effect; and when q>1, the actual combined effect exceeds the theoretical expectation, showing a synergic effect. Unless otherwise specified, single-use efficacy of A or B (denoted as EA and EB respectively) and the actual combined efficacy of A/B (denoted as EA+B) are both tumor inhibition rates.
In one experiment, the test animal was a BALB/c mouse, the modeling cells were breast cancer 4T1 cells, and the transplantation tumor was modeled at 1×10^6 cells/mouse under the skin of the animal's right axilla. […] The experimental groups were divided into 1 negative control group (group 0) and 13 study groups (groups 1-13). They were all injected intratumorally. […] Each group was administered once every 3 days for a total of 3 times, each time at an injection dose of 150 μl//mouse. During the administration, general state of the animals and the degree of necrosis of normal tissues around the tumor after the administration were observed. On the 5th day after the administration was ended, the animals were euthanized, and the tumor weight was measured after anatomy to the animals. The tumor inhibition rate was calculated from the negative control group of each administration mode.
In another experiment, the test animal was a BALB/c mouse, the modeling cells were breast cancer 4T1 cells, and the transplantation tumor was modeled at 1×10^6 cells/mouse under the skin of the animal's right axilla. […] Each group was administered by intratumoral injection once every 3 days for a total of 3 times, each time at an injection dose of 150 μl/mouse. On the 5th day after the administration was ended, the animals were euthanized, and the tumor weight was measured after anatomy to the animals. The tumor inhibition rate was calculated from the negative control group.
In another experiment, the test animal was BALB/c mice, the modeling cells were breast cancer 4T1 cells, and the transplantation tumor was modeled at 1×10^6 cells/mouse under the skin of the animal's right axilla. […] Each group was administered by intratumoral injection once every 3 days for a total of 3 times, each time at an injection dose of 150 μl/mouse. On the 5th day after the administration was ended, the animals were euthanized, and the tumor weight was measured after anatomy to the animals. The tumor inhibition rate was calculated from the negative control group.
In another experiment, the test animal was a BALB/c mouse, the modeling cells were breast cancer 4T1 cells, and the transplantation tumor under the skin of the animal's right axilla was modeled at 1×10^6 cells/mouse.

[3] = test system: pancreatic cancer cells PANC-1; experiment: Tumor inhibition in nude mice bearing pancreatic cancer cells PANC-1; format: in vivo; conditions: for Tumor inhibition rate: Table 4, avg tumor volume 136 mm^3, intratumoral every 3 days x3, ≤150 μl, next day; for Tumor inhibition rate of intraperitoneal injection / Tumor inhibition rate of intratumoral injection: Table 3, avg tumor volume 105 mm^3, 100 μl/mouse every 3 days x3, next day after last dose
Protocol: as §1
After anatomy, the tumor weight was measured and the tumor inhibition rate was calculated.

[4] = pH of the drug composition; format: physicochemical; conditions: Table 15; aqueous solution
[5] = Table 11, avg tumor volume 164 mm^3, intratumoral every 3 days x3, ≤150 μl, fifth day after last dose
[6] = Table 16, avg tumor volume 169 mm^3, intratumoral every 3 days x3, ≤150 μl/mouse, 5th day
[7] = Table 12, avg tumor volume 317 mm^3, 5th day
[8] = Table 6, avg tumor volume 153 mm^3, ≤120 μl/mouse every 3 days x3
[9] = Table 17, avg tumor volume 317 mm^3, fifth day
[10] = Table 8, avg tumor volume 175 mm^3, ≤150 μl/mouse every 3 days x3
[11] = Table 15, avg tumor volume 316 mm^3, 5th day
[12] = Table 14, avg tumor volume 325 mm^3, 5th day

Compound: N[C@@H](CCC(=O)N[C@@H](CS)C(=O)NCC(=O)O)C(=O)O [2.5% glutathione, Reduced glutathione]
- Tumor inhibition rate [1, 5]: (12%)*
- Tumor inhibition rate [1, 6]: (12%)

Compound: Cl [0.5% hydrochloric acid, hydrochloric acid]
- Tumor inhibition rate [1, 5]: (53%)

Compound: O=c1[nH]cc(F)c(=O)[nH]1 [1.5% 5-fluorouracil, 5-fluorouracil]
- Tumor inhibition rate [1, 6]: (69%)

Compound: [Na+].[OH-] [0.5% NaOH, sodium hydroxide]
- Tumor inhibition rate [2, 7]: 31%
- Tumor weight (x ± s) [2, 7]: 1.54 g

Compound: Cl [0.25% hydrochloric acid, hydrochloric acid]
- Tumor inhibition rate [1, 5]: (31%)

Compound: CN(C)c1ccc2nc3ccc(=[N+](C)C)cc-3sc2c1 [0.7% methylene blue, Methylene blue]
- Intratumoral injection Tumor inhibition rate [1, 8]: 13%
- Intratumoral injection Tumor weight [1, 8]: 2.02 ± 0.31 g
- Tumor inhibition rate of intraperitoneal injection [1, 8]: 2%

Compound: N=C(N)NCCC[C@H](N)C(=O)O [2.5% arginine, L-arginine]
- Tumor inhibition rate [2, 9]: 5%
- Tumor weight [2, 9]: 1.48 ± 0.32 g

Compound: N=C(N)NCCC[C@H](N)C(=O)O [5% arginine, L-arginine]
- Tumor inhibition rate [3]: 16%
- Tumor inhibition rate [2, 9]: 10%
- Tumor weight [2, 9]: 1.40 ± 0.26 g

Compound: N=C(N)NCCC[C@H](N)C(=O)O [2% arginine, L-arginine]
- Tumor inhibition rate [3]: 15%

Compound: [Na+].[OH-] [7% NaOH, sodium hydroxide]
- Tumor inhibition rate [2, 7]: 75%
- Tumor weight (x ± s) [2, 7]: 0.59 g

Compound: Cl.N[C@@H](CCC(=O)O)C(=O)O [0.25% glutamic hydrochloride, L-glutamic hydrochloride]
- Tumor inhibition rate ([3]; hydrochloride): 13%

Compound: N[C@@H](CCC(=O)N[C@@H](CS)C(=O)NCC(=O)O)C(=O)O [12.5% glutathione, Reduced glutathione]
- Tumor inhibition rate [3]: 66%

Compound: Cl [1% hydrochloric acid, hydrochloric acid]
- Tumor inhibition rate [1, 5]: (68%)

Compound: N[C@@H](CCC(=O)N[C@@H](CS)C(=O)NCC(=O)O)C(=O)O [5% glutathione, Reduced glutathione]
- Tumor inhibition rate [1, 5]: (31%)
- Tumor inhibition rate [1, 6]: (32%)
- Tumor inhibition rate [3]: 32%

Compound: O=c1[nH]cc(F)c(=O)[nH]1 [0.75% 5-fluorouracil, 5-fluorouracil]
- Tumor inhibition rate [1, 6]: (63%)

Compound: NCC(=O)O [20% glycine, Glycine]
- Intratumoral injection Tumor inhibition rate [1, 10]: 54%
- Intratumoral injection Tumor weight [1, 10]: 1.17 ± 0.28 g
- Tumor inhibition rate of intraperitoneal injection [1, 10]: 2%
- Tumor inhibition rate of intraperitoneal injection [3]: 52%
- Tumor inhibition rate of intratumoral injection [3]: 4%
- Intratumoral injection Tumor inhibition rate [2]: 18%
- Intratumoral injection Tumor weight [2]: 1.05 ± 0.32 g

Compound: Cl.N[C@@H](CCC(=O)O)C(=O)O [5% glutamic hydrochloride, L-glutamic hydrochloride]
- Tumor inhibition rate ([3]; hydrochloride): 76%

Compound: N=C(N)NCCC[C@H](N)C(=O)O [7.5% arginine, L-arginine]
- Tumor inhibition rate [3]: 21%

Compound: N[C@@H](CCC(=O)N[C@@H](CS)C(=O)NCC(=O)O)C(=O)O [7.5% glutathione, Reduced glutathione]
- Tumor inhibition rate [3]: 45%

Compound: Cl.N[C@@H](CCC(=O)O)C(=O)O [1% glutamic hydrochloride, L-glutamic hydrochloride]
- Tumor inhibition rate ([3]; hydrochloride): 18%

Compound: Cl.N[C@@H](CCC(=O)O)C(=O)O [2% glutamic hydrochloride, L-glutamic hydrochloride]
- Tumor inhibition rate ([3]; hydrochloride): 49%

Compound: O=C([O-])O.[Na+] [4% sodium bicarbonate, sodium bicarbonate]
- Tumor inhibition rate [2, 11]: 23%
- Tumor weight (x ± s) [2, 11]: 1.68 ± 0.27 g
- Drug pH [4]: 6.9

Compound: CC(=O)O [3.5% acetic acid, acetic acid]
- Intratumoral injection Tumor inhibition rate [1, 8]: 64%
- Intratumoral injection Tumor weight [1, 8]: 0.84 ± 0.23 g
- Tumor inhibition rate of intraperitoneal injection [1, 8]: 6%

Compound: CC(=O)O [20% acetic acid, acetic acid]
- Tumor inhibition rate [1, 5]: (92%)**

Compound: CC/C=C\C/C=C\C/C=C\C/C=C\C/C=C\C/C=C\CCC(=O)O [3% DHA, Docosahexaenoic acid (DHA)]
- Tumor inhibition rate [1, 5]: (21%)

Compound: Cl.N[C@@H](CCC(=O)O)C(=O)O [0.5% glutamic hydrochloride, L-glutamic hydrochloride]
- Tumor inhibition rate ([3]; hydrochloride): 11%

Compound: CC/C=C\C/C=C\C/C=C\C/C=C\C/C=C\C/C=C\CCC(=O)O [5% DHA, Docosahexaenoic acid (DHA)]
- Intratumoral injection Tumor inhibition rate [1, 8]: 27%
- Intratumoral injection Tumor weight [1, 8]: 1.69 ± 0.33 g
- Tumor inhibition rate of intraperitoneal injection [1, 8]: 4%
- Tumor inhibition rate [1, 5]: (28%)

Compound: N=C(N)NCCC[C@H](N)C(=O)O [10% arginine, L-arginine]
- Tumor inhibition rate [1, 5]: (43%)
- Tumor inhibition rate [3]: 43%
- Tumor inhibition rate [2, 7]: 19%
- Tumor weight (x ± s) [2, 7]: 1.91 g
- Tumor inhibition rate [2, 9]: 21%
- Tumor weight [2, 9]: 1.23 ± 0.31 g

Compound: O=c1[nH]cc(F)c(=O)[nH]1 [0.5% 5-fluorouracil, 5-fluorouracil]
- Tumor inhibition rate [1, 6]: (59%)*

Compound: N[C@@H](CCC(=O)N[C@@H](CS)C(=O)NCC(=O)O)C(=O)O [2% glutathione, Reduced glutathione]
- Tumor inhibition rate [3]: 13%

Compound: CN(C)c1ccc2nc3ccc(=[N+](C)C)cc-3sc2c1 [0.25% methylene blue, Methylene blue]
- Tumor inhibition rate [1, 5]: (11%)

Compound: CN(C)c1ccc2nc3ccc(=[N+](C)C)cc-3sc2c1 [0.35% methylene blue, Methylene blue]
- Tumor inhibition rate [1, 5]: (18%)

Compound: CC(=O)O [10% acetic acid, acetic acid]
- Intratumoral injection Tumor inhibition rate [2]: 53%
- Intratumoral injection Tumor weight [2]: 0.60 ± 0.21 g

Compound: NCCCC[C@H](N)C(=O)O [20% lysine, L-lysine]
- Tumor inhibition rate of intraperitoneal injection [3]: 53%
- Tumor inhibition rate of intratumoral injection [3]: 1%

Compound: CC(=O)O [2% acetic acid, acetic acid]
- Tumor inhibition rate [1, 5]: (46%)

Compound: [Cl-].[K+] [2% KCl, potassium chloride]
- Tumor inhibition rate [2, 12]: 11%
- Tumor weight (x ± s) [2, 12]: 2.19 ± 0.31 g

Compound: O=C1OC2(c3cc(I)c(O)c(I)c3Oc3c2cc(I)c(O)c3I)c2c(Cl)c(Cl)c(Cl)c(Cl)c21 [5% Bengal Red, Bengal Red]
- Tumor inhibition rate [1, 5]: (46%)

Compound: O=C1OC2(c3cc(I)c(O)c(I)c3Oc3c2cc(I)c(O)c3I)c2c(Cl)c(Cl)c(Cl)c(Cl)c21 [10% Bengal Red, Bengal Red]
- Tumor inhibition rate [1, 5]: (63%)

Compound: N[C@@H](CCC(=O)N[C@@H](CS)C(=O)NCC(=O)O)C(=O)O [1% glutathione, Reduced glutathione]
- Tumor inhibition rate [3]: 11%

Compound: CC(=O)O [1% acetic acid, acetic acid]
- Tumor inhibition rate [1, 5]: (26%)

Compound: N=C(N)NCCC[C@H](N)C(=O)O [1% arginine, L-arginine]
- Tumor inhibition rate [3]: 17%

Compound: N=C(N)NCCC[C@H](N)C(=O)O [3% arginine, L-arginine]
- Tumor inhibition rate [3]: 19%

Compound: O=c1[nH]cc(F)c(=O)[nH]1 [1% 5-fluorouracil, 5-fluorouracil]
- Intratumoral injection Tumor inhibition rate [1, 8]: 66%
- Intratumoral injection Tumor weight [1, 8]: 0.78 ± 0.21 g
- Tumor inhibition rate of intraperitoneal injection [1, 8]: 59%
- Intratumoral injection Tumor inhibition rate [1, 10]: 67%
- Intratumoral injection Tumor weight [1, 10]: 0.84 ± 0.25 g
- Tumor inhibition rate of intraperitoneal injection [1, 10]: 58%
- Tumor inhibition rate [1, 6]: (66%)
- Y(%) tumor inhibition rate ([1]; Table 18, avg tumor volume 186 mm^3): 61%
- Y(%) tumor inhibition rate ([1]; Table 19, avg tumor volume 172 mm^3): 63%
- Tumor inhibition rate of intraperitoneal injection [3]: 63%
- Tumor inhibition rate of intratumoral injection [3]: 59%
- Intratumoral injection Tumor inhibition rate [2]: 51%
- Intratumoral injection Tumor weight [2]: 0.63 ± 0.21 g
- Tumor inhibition rate [2, 9]: 53%
- Tumor weight [2, 9]: 0.73 ± 0.21 g

Compound: N[C@@H](CCC(=O)N[C@@H](CS)C(=O)NCC(=O)O)C(=O)O [3% glutathione, Reduced glutathione]
- Tumor inhibition rate [3]: 12%

Compound: Cl.N[C@@H](CCC(=O)O)C(=O)O [0.15% glutamic hydrochloride, L-glutamic hydrochloride]
- Tumor inhibition rate ([3]; hydrochloride): 16%

Compound: N=C(N)NCCC[C@H](N)C(=O)O [4% arginine, L-arginine]
- Tumor inhibition rate [2, 7]: 2%
- Tumor weight (x ± s) [2, 7]: 2.31 g

Compound: Cl [2% hydrochloric acid, hydrochloric acid]
- Tumor inhibition rate [1, 5]: (83%)
